Patent US5827883A, “Dermatological use of vitamin D derivatives” (priority 1995, dated 1998)
Like-named read-outs stand apart in the source and are kept apart here.

Tests used:
human VDR = biological target: T1, human VDR (Homo sapiens, UniProt P11473); test: VDR activation (transcription activation assay; COS cells cotransfected with human VDR and VDRE3-luciferase reporter); assay type: cell-based; details: human VDR (pSG5), VDRE3 rat osteocalcin / tk promoter / luciferase reporter, concentration giving half-maximal activity (8-10 fold luciferase induction), read-out: Vitamin D Receptor Activation ED50
T1 construct: expressed in transfected cells; host or cells: COS cells
T1 sequence (P11473 1-427): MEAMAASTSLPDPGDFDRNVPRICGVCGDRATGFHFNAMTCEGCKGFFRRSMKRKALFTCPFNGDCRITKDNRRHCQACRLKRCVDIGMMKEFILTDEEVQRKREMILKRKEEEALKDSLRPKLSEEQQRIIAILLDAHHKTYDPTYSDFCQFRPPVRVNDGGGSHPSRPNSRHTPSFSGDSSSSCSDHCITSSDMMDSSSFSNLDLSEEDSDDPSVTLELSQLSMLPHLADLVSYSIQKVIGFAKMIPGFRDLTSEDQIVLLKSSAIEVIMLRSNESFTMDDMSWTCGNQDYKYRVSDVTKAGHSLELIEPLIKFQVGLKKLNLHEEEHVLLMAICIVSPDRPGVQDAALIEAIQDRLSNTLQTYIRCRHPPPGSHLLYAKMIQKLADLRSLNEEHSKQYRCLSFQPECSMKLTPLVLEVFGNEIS
Excerpt: In order to measure the activation of the vitamin D receptor (VDR) by vitamin D analogs in cells a transcription activation assay was used. COS cells were cotransfected with the human VDR (expressed in pSG5) and a reporter gene containing three response elements (VDRE3) from the rat osteocalcin gene, the thymidine kinase basal promoter, and the luciferase reporter gene.

[1] = Calcium liability (tolerance test in mice); details: mouse, in vivo, sc
Excerpt: This routine test gives a global picture of calcemic liability. Profound changes in calcium homeostasis strongly affect the weight development of the animals. This parameter was used as a primary test for tolerance. Mice (25-30 g body weight.) received daily subcutaneous administrations of the vitamin D derivative for 4 consecutive days. Body weight was registered just before and at the end of a 5 day treatment period.

[2] = mice 25-30 g, daily subcutaneous administration for 4 consecutive days, body weight before and at end of 5 day treatment period, read-out: HTD in mice (highest tolerated dose, dose which results in zero weight gain)

Compound	EC50 (human VDR)	MTD at 120 h [1, 2]	MTD at 120 h [1]
C[C@H](C(=O)OCCC1(O)CCCC1)[C@H]1CC[C@H]2/C(=C/C=C3C[C@@H](O)C[C@H](O)C3)CCC[C@]12C [Example 11, (7E)-(1R,3R,20S)-1,3-Dihydroxy-20-methyl-19-nor-9,10-seco-pregna-5,7-dien-21-oic acid 2-(1-hyddroxy-cyclopentyl)-ethyl ester]	180 nM	> 6 mg/kg	
C[C@H](C(=O)OCC1(O)CCCC1)[C@H]1CC[C@H]2/C(=C/C=C3C[C@@H](O)C[C@H](O)C3)CCC[C@]12C [Example 7, (7E)-(1R,3R,20S)-1,3-Dihydroxy-20-methyl-19-nor-9,10-seco-pregna-5,7-dien-21-oic acid 1-hydroxy-cyclopentylmethyl ester]	18 nM	> 5 mg/kg	
C=C1/C(=C\C=C2/CCC[C@]3(C)[C@@H]([C@H](C)COC(=O)C(O)(CC)CC)CC[C@@H]23)C[C@@H](O)C[C@@H]1O [Example 24, 2-Ethyl-2-hydroxy-butyric acid-(5Z,7E)-(1S,3R,20S)-1,3-dihydroxy-20-methyl-9,10-seco-pregna-5,7,10 (19)-trien-21-yl ester]	18 nM	2.5 mg/kg	
C=C1/C(=C\C=C2/CCC[C@]3(C)[C@@H]([C@H](C)C(=O)OCC4(O)CCCCC4)CC[C@@H]23)C[C@@H](O)C[C@@H]1O [Example 9, (5Z,7E)-(1R,3R,20S)-1,3-Dihydroxy-20-methyl-9,10-seco-pregna-5,7,10-trien-21-oic acid 1-hydroxy-cyclohexylmethyl ester]	5.6 nM	1 mg/kg	
C=C1/C(=C\C=C2/CCC[C@]3(C)[C@@H]([C@H](C)COC(=O)C(C)(C)C)CC[C@@H]23)C[C@@H](O)C[C@@H]1O [Example 22, 2,2-Dimethyl-propionic acid (5Z,7E)-(1R,3R)-1,3-dihydroxy-23,24-dinor-9,10-secochola-5,7-dien-22-yl ester]	141 nM		9 mg/kg
C=C1/C(=C\C=C2/CCC[C@]3(C)[C@@H]([C@@H](C)COC(=O)C(C)(C)C)CC[C@@H]23)C[C@@H](O)C[C@@H]1O [Example 19, 2,2-Dimethyl-propionic acid-(5Z,7E)-(1S,3R,20R)-1,3-dihydroxy-20-methyl-9,10-seco-pregna-5,7,10 (19)-trien-21-yl ester]	0.28 nM		> 6 mg/kg
C[C@H](C(=O)OCC1(O)CCCCC1)[C@H]1CC[C@H]2/C(=C/C=C3C[C@@H](O)C[C@H](O)C3)CCC[C@]12C [Example 8, (7E)-(1R,3R,20S)-1,3-Dihydroxy-20-methyl-19-nor-9,10-seco-pregna-5,7-dien-21-oic acid 1-hydroxy-cyclohexyl methyl ester]	38 nM	1 mg/kg	
C=C1/C(=C\C=C2/CCC[C@]3(C)[C@@H]([C@H](C)CCCC(C)(C)O)CC[C@@H]23)C[C@@H](O)C[C@@H]1O [Calcitriol, calcitriol, reference compound]		0.0005 mg/kg	
C=C1/C(=C\C=C2/CCC[C@]3(C)[C@@H]([C@H](C)COC(=O)CC(C)(O)CC)CC[C@@H]23)C[C@@H](O)C[C@@H]1O (mixture of isomers) [Example 29, 1:1 Mixture of (R)-and-(S)-3-hydroxy-3-methyl-pentanoic acid-(5Z,7E)-(1S,3R,20S)-1,3-dihydroxy-20-methyl-9,10-seco-pregna-5,7,10 (19)-trien-21-yl ester]	2.5 nM		7 mg/kg
C=C1/C(=C\C=C2/CCC[C@]3(C)[C@@H]([C@@H](C)COC(=O)C(C)(C)O)CC[C@@H]23)C[C@@H](O)C[C@@H]1O [Example 20, 2-Hydroxy-2-methyl-propionic acid-(5Z,7E)-(1S,3R,20R)-1,3-dihydroxy-20-methyl-9,10-seco-pregna-5,7,10 (19)-trien-21-yl ester]	0.82 nM		> 10 mg/kg
C=C1/C(=C\C=C2/CCC[C@]3(C)[C@@H]([C@H](C)COC(=O)C(C)(C)O)CC[C@@H]23)C[C@@H](O)C[C@@H]1O [Example 23, 2-Hydroxy-2-methyl-propionic acid-(5Z,7E)-(1S,3R,20S)-1,3-dihydroxy-20-methyl-9,10-seco-pregna-5,7,10 (19)-trien-21-yl ester]	83 nM		> 11 mg/kg
C[C@@H](COC(=O)C(C)(C)O)[C@H]1CC[C@H]2/C(=C/C=C3C[C@@H](O)C[C@H](O)C3)CCC[C@]12C [Example 21, 2-Hydroxy-2-methyl-propionic acid-(7E)-(1R,3R,20R)-1,3-dihydroxy-20-methyl-19-nor-9,10-seco-pregna-5,7-dien-21-yl ester]	0.55 nM	> 9 mg/kg	
C=C1/C(=C\C=C2/CCC[C@]3(C)[C@@H]([C@H](C)COC(=O)CC(C)(O)C(F)(F)F)CC[C@@H]23)C[C@@H](O)C[C@@H]1O (stereo partly drawn) [Example 28]	0.53 nM	0.5 mg/kg	
C[C@H](C(=O)OCC1(O)CCCCCC1)[C@H]1CC[C@H]2/C(=C/C=C3C[C@@H](O)C[C@H](O)C3)CCC[C@]12C [Example 10, (7E)-(1R,3R,20S)-1,3-Dihydroxy-20-methyl-19-nor-9,10-seco-pregna-5,7-dien-21-oic acid 1-hyddroxy-cycloheptylmethyl ester]	31 nM	> 6 mg/kg	
